# Data published in ChEMBL document CHEMBL4431361, “Development of indole sulfonamides as cannabinoid receptor negative allosteric modulators” (Bioorg Med Chem Lett, 2016).
# How the values were obtained:
# [1] = Apparent permeability of the compound at 10 uM after 5 hrs by PAMPA; assay type: ADME
# [2] = Ratio of drug level in […] brain to blood at 30mg/kg, ip after 1 hr by HPLC/MS/MS method; assay type: ADME, organism-based
# Cannabinoid receptor 1 = Cannabinoid receptor 1 (Homo sapiens, UniProt P21554); experiment: Negative allosteric modulation of human CB1 receptor expressed in CHO-K1 cells assessed as inhibition of CP55940 induced beta arrestin recruitment preincubated for 30 mins followed by addition of CP55940 for 90 mins by chemiluminescence assay; assay type: functional, cell-based
# [3] = Half life in NMRI mouse at 10 mg/kg, po; assay type: ADME, organism-based; conditions: in vivo
# [4] = Cmax in NMRI mouse blood at 10 mg/kg, po; assay type: ADME, organism-based; set-up: dose 10 mg/kg, route oral
# [5] = Tmax in NMRI mouse at 10 mg/kg, po; assay type: ADME, organism-based; conditions: in vivo
# [6] = AUC (0 to 8 hrs) in NMRI mouse at 10 mg/kg, po; assay type: ADME, organism-based; set-up: time < 8 hr, dose 10 mg/kg, route oral; conditions: in vivo
# [7] = Ratio of drug level in NMRI mouse brain to blood after 2 hrs; assay type: ADME, tissue-based
# [8] = Half life in human liver microsomes at 3 uM in presence of NADPH by LC-MS/MS analysis; assay type: ADME, Microsome
# [9] = Ratio of drug level in NMRI mouse brain to blood after 4 hrs; assay type: ADME, tissue-based
# [10] = Half life in rat liver microsomes at 3 uM in presence of NADPH by LC-MS/MS analysis; assay type: ADME, Microsome
# Cannabinoid receptor 1, sequence (P21554 whole entry): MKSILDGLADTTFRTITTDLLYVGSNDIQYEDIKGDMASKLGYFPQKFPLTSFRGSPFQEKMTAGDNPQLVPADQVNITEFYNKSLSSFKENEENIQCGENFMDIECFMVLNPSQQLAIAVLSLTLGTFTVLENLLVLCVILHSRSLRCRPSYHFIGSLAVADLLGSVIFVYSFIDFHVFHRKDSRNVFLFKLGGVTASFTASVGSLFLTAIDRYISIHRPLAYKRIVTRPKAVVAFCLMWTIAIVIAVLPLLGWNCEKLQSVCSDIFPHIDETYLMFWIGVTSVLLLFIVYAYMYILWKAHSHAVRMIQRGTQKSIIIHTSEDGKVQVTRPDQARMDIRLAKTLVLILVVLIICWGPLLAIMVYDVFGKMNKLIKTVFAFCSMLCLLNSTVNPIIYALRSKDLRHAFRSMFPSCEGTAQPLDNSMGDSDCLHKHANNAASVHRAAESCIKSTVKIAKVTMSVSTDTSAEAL
SMILES,IC50 (Cannabinoid receptor 1),further results
Cc1c(S(=O)(=O)NCCCN2CCOCC2)[nH]c2ccccc12,> 1000 nM,
CCc1c(S(=O)(=O)NCCc2ccc(N(C)C)cc2)[nH]c2ccc(Cl)cc12,130 nM,
Cc1ccc(CNS(=O)(=O)c2[nH]c3ccccc3c2C)cc1,200 nM,half-life at 3 µM [8]: 7 min
CCc1c(S(=O)(=O)NCCc2ccc(N3CCOCC3)cc2)[nH]c2ccc(Cl)cc12,500 nM,half-life at 3 µM [8]: 10 min
Cc1c(S(=O)(=O)NCCN2CCOCC2)[nH]c2ccccc12,> 1000 nM,
COc1ccc(CNS(=O)(=O)c2cc3ccccc3[nH]2)cc1,200 to 400 nM,half-life at 3 µM [8]: 2 min
O=C(O)c1ccc(-c2ccc(CNS(=O)(=O)c3cc4ccccc4[nH]3)cc2)cc1,> 1000 nM,
O=S(=O)(NCc1cccc(-c2ccc(F)cc2)c1)c1cc2ccccc2[nH]1,137 nM,
Cc1c(S(=O)(=O)NCc2ccc(Cl)cc2)[nH]c2ccccc12,400 nM,
COc1ccc(CNS(=O)(=O)c2cc3cc(OC)ccc3[nH]2)cc1,400 nM,
Cc1c(S(=O)(=O)NCCc2ccc(N3CCCCC3)cc2)[nH]c2ccccc12,200 nM,
NC(=O)c1cccc(-c2ccc(CNS(=O)(=O)c3cc4ccccc4[nH]3)cc2)c1,300 nM,
Cc1c(S(=O)(=O)NCc2cccc(Cl)c2)[nH]c2ccccc12,800 nM,
COc1ccc(CNS(=O)(=O)c2[nH]c3ccccc3c2C)cc1,200 nM,
COc1ccc(CNS(=O)(=O)c2[nH]c3ccc(Cl)cc3c2C)cc1,500 nM,
Cc1c(S(=O)(=O)NCc2ccc(C(F)(F)F)cc2)[nH]c2ccccc12,250 nM,
Cc1c(S(=O)(=O)NCCc2ccccc2)[nH]c2ccccc12,200 to 1000 nM,half-life at 3 µM [8]: 3 min
Cc1c(S(=O)(=O)NCC2CCCCC2)[nH]c2ccccc12,> 1000 nM,
Cc1c(S(=O)(=O)NCCc2ccc(N3CCOCC3)cc2)[nH]c2ccccc12,> 1000 nM,
Cc1c(S(=O)(=O)NCc2ccccn2)[nH]c2ccccc12,> 1000 nM,
Cc1cc(-c2ccc(F)cc2)ccc1CNS(=O)(=O)c1cc2cc(Cl)ccc2[nH]1,> 1000 nM,
Cc1c(S(=O)(=O)NCc2ccccc2)[nH]c2ccccc12,> 1000 nM,
Cc1c(S(=O)(=O)NCc2cccnc2)[nH]c2ccccc12,> 1000 nM,
Cc1c(S(=O)(=O)NCCc2ccc(N(C)C)cc2)[nH]c2ccccc12,300 nM,half-life at 3 µM [8]: 13 min
CCc1c(S(=O)(=O)NCCc2ccc(N3CCCCC3)cc2)[nH]c2ccc(Cl)cc12,120 nM,half-life at 3 µM [8]: 14 min
CCc1c(S(=O)(=O)NCc2ccc(Cl)cc2)[nH]c2ccc(Cl)cc12,> 1000 nM,
Cc1cc(CNS(=O)(=O)c2cc3cc(Cl)ccc3[nH]2)ccc1-c1ccc(F)cc1,> 1000 nM,
Cc1c(S(=O)(=O)NCc2ccc(Cl)c(Cl)c2)[nH]c2ccccc12,800 nM,

# These reach a lower IC50 (Cannabinoid receptor 1). Values come first.
IC50 (Cannabinoid receptor 1),SMILES,further results
112 nM,COc1ccc2[nH]c(S(=O)(=O)NCc3ccc(-c4ccc(CO)cc4)cc3)cc2c1,
85 nM,Nc1ccc(-c2ccc(CNS(=O)(=O)c3cc4cc(Cl)ccc4[nH]3)cc2)cn1,
41 nM,CC(NS(=O)(=O)c1cc2ccccc2[nH]1)c1ccc(-c2ccc(F)cc2)cc1 (configuration not stated),
40 nM,COc1ccc2[nH]c(S(=O)(=O)NCc3ccc(-c4ccc(OC(F)(F)F)cc4)cc3F)cc2c1,half-life at 3 µM [10]: < 15 min
33 nM,COc1cc(-c2ccc(CNS(=O)(=O)c3cc4ccccc4[nH]3)cc2)ccc1O,
22 nM,COc1ccc(-c2ccc(CNS(=O)(=O)c3cc4ccccc4[nH]3)cc2)c(OC)c1,
21 nM,O=S(=O)(NCc1ccc(-c2ccc(F)cc2)cc1F)c1cc2cc(Cl)ccc2[nH]1,half-life at 3 µM [10]: 112 min; half-life at 3 µM [8]: 146 min
15 nM,CS(=O)(=O)c1ccc(-c2ccc(CNS(=O)(=O)c3cc4ccccc4[nH]3)cc2)cc1,
15 nM,CS(=O)(=O)c1ccc(-c2ccc(CNS(=O)(=O)c3cc4cc(Cl)ccc4[nH]3)cc2)cc1,half-life at 3 µM [10]: 36 min; half-life at 3 µM [8]: 41 min
12 nM,O=S(=O)(NCc1ccc(-c2ccccc2)cc1)c1[nH]c2ccccc2c1CO,
12 nM,O=S(=O)(NCc1ccc(-c2ccc(F)cc2)cc1)c1cc2cc(Br)ccc2[nH]1,half-life at 3 µM [10]: 130 min
12 nM,O=S(=O)(NCc1ccc(-c2ccsc2)cc1)c1cc2ccccc2[nH]1,
10 nM,CCOc1ccc(-c2ccc(CNS(=O)(=O)c3cc4ccccc4[nH]3)cc2)cn1,
10 nM,COCc1c(S(=O)(=O)NCc2ccc(-c3ccccc3)cc2)[nH]c2ccccc12,
9 nM,O=S(=O)(NCc1ccc(-c2ccc(F)cc2)cn1)c1cc2cc(Br)ccc2[nH]1,half-life at 3 µM [10]: 25 min
8 nM,COc1ccc2[nH]c(S(=O)(=O)NCc3ccc(-c4ccc(C#N)cc4)cc3)cc2c1,half-life at 3 µM [10]: 26 min
8 nM,Cc1c(S(=O)(=O)NCc2ccc(-c3ccccc3)cc2)[nH]c2ccccc12,

IC50 (Cannabinoid receptor 1),SMILES,further results
7 nM,O=S(=O)(NCc1ccc(-c2cccnc2)cc1)c1cc2ccccc2[nH]1,half-life at 3 µM [10]: < 15 min
6 nM,O=S(=O)(NCc1ccc(-c2ccccc2)cc1)c1cc2cc(Br)ccc2[nH]1,half-life at 3 µM [10]: < 15 min
5 nM,O=S(=O)(NCc1ccc(-c2ccccc2)cc1)c1cc2ccc(F)cc2[nH]1,
5 nM,O=S(=O)(NCc1ccc(-c2ccc(F)nc2)cc1)c1cc2ccc(Cl)cc2[nH]1,half-life at 3 µM [10]: 23 min; half-life at 3 µM [8]: 22 min; Kp at 2 h [7]: 2.7
4 nM,O=S(=O)(NCc1ccc(-c2ccc(F)nc2F)cc1)c1cc2cc(Cl)ccc2[nH]1,"Papp at 5 h, 10 µM [1]: 141 ×10⁻⁶ cm/s; half-life [3]: 474 min; Cmax [4]: 672 ng/mL; Tmax [5]: 4 h; AUC(0-t) at 8 h [6]: 4380 ng·h/mL; Kp at 4 h [9]: 0.8"
4 nM,O=S(=O)(NCc1ccc(-c2ccc(F)cc2F)cc1)c1cc2cc(Cl)ccc2[nH]1,half-life at 3 µM [10]: 84 min; half-life at 3 µM [8]: 111 min
4 nM,O=S(=O)(NCc1ccc(-c2ccc(F)cc2F)cn1)c1cc2cc(Br)ccc2[nH]1,half-life at 3 µM [10]: 33 min; half-life at 3 µM [8]: 53 min
4 nM,O=S(=O)(NCc1ccc(-c2ccccc2)cc1)c1cc2ccc(Cl)cc2[nH]1,half-life at 3 µM [10]: < 15 min
3 nM,CN(C)c1ccc(-c2ccc(CNS(=O)(=O)c3cc4ccccc4[nH]3)cc2)cc1,
3 nM,O=S(=O)(NCc1ccc(-c2ccc(F)cc2F)cn1)c1cc2cc(Cl)ccc2[nH]1,"Papp at 5 h, 10 µM [1]: 53.8 ×10⁻⁶ cm/s; half-life [3]: 180 min; Cmax [4]: 848 ng/mL; Tmax [5]: 1 h; AUC(0-t) at 8 h [6]: 4700 ng·h/mL; Kp at 2 h [7]: 3.3"
3 nM,COc1ccc2[nH]c(S(=O)(=O)NCc3ccc(-c4ccc(F)nc4)cc3)cc2c1,half-life at 3 µM [10]: < 15 min; half-life at 3 µM [8]: < 15 min
3 nM,Cc1ccc(-c2ccc(CNS(=O)(=O)c3cc4ccccc4[nH]3)cc2)cc1,
2 nM,CCc1c(C(=O)NCCc2ccc(N3CCCCC3)cc2)[nH]c2ccc(Cl)cc12,"Papp at 5 h, 10 µM [1]: 1.23 ×10⁻⁶ cm/s; Kp at 1 h [2]: 1.1"
2 nM,O=S(=O)(NCc1ccc(-c2ccccc2)cc1)c1cc2ccccc2[nH]1,
2 nM,COc1ccc(-c2ccc(CNS(=O)(=O)c3cc4ccccc4[nH]3)cc2)cc1,
1 nM,O=S(=O)(NCc1ccc(-c2ccc(F)cc2)cc1)c1cc2ccccc2[nH]1,half-life at 3 µM [10]: < 15 min
